What was measured:
Type in all cases: cell-based
IRAK3 = molecular target: T1, IRAK3 (Homo sapiens, UniProt Q9Y616); assay: Expression proteomics in THP-1 cells, IRAK3 level; details: IRAK3 protein log2 fold change, 24 h, 1.0 μM
T1 construct: endogenous in cells; host or cells: THP-1
T1 sequence (Q9Y616 1-596): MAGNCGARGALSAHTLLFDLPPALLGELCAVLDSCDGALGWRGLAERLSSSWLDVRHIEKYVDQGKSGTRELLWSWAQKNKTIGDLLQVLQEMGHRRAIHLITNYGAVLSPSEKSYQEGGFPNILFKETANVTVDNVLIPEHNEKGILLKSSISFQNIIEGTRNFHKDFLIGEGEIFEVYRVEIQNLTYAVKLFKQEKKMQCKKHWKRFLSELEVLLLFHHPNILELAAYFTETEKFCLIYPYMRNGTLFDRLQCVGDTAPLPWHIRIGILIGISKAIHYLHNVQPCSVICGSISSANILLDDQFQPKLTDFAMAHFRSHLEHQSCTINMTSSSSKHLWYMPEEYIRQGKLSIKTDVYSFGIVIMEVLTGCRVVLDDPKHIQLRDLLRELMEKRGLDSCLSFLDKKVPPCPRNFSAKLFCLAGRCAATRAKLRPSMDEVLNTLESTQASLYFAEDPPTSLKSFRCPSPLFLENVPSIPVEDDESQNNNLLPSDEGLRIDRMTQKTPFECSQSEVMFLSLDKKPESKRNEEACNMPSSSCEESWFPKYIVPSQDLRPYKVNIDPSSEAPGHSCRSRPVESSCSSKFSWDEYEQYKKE
Method: (§1) THP-1 cells were seeded at a concentration of 3×10^6 cells in T175 flasks with 60 mL growth medium (RPM11640+10% FBS). […] of a 10× compound solution prepared in growth medium (DMSO), IAP PROTAC) was added and the cells were treated for the indicated time points (6 or 24 h) at 37° C., 5% CO2. For harvesting the cells were collected into falcon tubes on ice, centrifuged and washed twice in cold PBS (Life technologies). After the last washing step the supernatant was removed and the pellets were snap-frozen in liquid N2 and stored at −80° C. and lysed in 2% SDS for 3 min at 95° C. in a thermomixer (Thermo Fisher Scientific), followed by digestion of DNA with Benzonase at 37° C. for 1.5 h. Lysate was cleared by centrifugation an protein concentration in supernatant was determined by BCA assay.
(§2) Leukemia 25, 89-100 (2011).
(§3) Samples were dried in vacuo and resuspended in 0.05% trifluoroacetic acid in water. […]
(§4) Reporter ion intensities were read from raw data and multiplied with ion accumulation times (the unit is milliseconds) so as to yield a measure proportional to the number of ions;
(§5) Nat Biotech 29, 255-265 (2011). this measure is referred to as ion area Savitski, M. M. et al. Delayed Fragmentation and Optimized Isolation Width Settings for Improvement of Protein Identification and Accuracy of Isobaric Mass Tag Quantification on Orbitrap-Type Mass Spectrometers. […]

AURKA = molecular target: T2, AURKA (Homo sapiens, UniProt O14965); assay: Expression proteomics in THP-1 cells, AURKA level; details: AURKA protein log2 fold change, 24 h, 1.0 μM
T2 construct: endogenous in cells; host or cells: THP-1
T2 sequence (O14965 1-403): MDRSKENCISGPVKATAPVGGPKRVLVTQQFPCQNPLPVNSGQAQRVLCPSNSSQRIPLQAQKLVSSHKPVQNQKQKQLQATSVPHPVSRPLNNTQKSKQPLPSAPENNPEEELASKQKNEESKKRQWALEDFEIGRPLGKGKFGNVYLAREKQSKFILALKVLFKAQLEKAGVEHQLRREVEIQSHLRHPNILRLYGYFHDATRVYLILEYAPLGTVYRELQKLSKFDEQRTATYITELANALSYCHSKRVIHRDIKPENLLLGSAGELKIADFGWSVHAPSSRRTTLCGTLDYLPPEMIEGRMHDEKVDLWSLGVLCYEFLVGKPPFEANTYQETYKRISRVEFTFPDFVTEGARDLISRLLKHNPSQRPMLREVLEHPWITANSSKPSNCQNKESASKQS
Method: as §1, §2, §3, §4, §5

BTK = molecular target: T3, BTK (Homo sapiens, UniProt Q06187); assay: Expression proteomics in THP-1 cells, BTK level; details: BTK protein log2 fold change, 24 h, 1.0 μM
T3 construct: endogenous in cells; host or cells: THP-1
T3 sequence (Q06187 whole entry): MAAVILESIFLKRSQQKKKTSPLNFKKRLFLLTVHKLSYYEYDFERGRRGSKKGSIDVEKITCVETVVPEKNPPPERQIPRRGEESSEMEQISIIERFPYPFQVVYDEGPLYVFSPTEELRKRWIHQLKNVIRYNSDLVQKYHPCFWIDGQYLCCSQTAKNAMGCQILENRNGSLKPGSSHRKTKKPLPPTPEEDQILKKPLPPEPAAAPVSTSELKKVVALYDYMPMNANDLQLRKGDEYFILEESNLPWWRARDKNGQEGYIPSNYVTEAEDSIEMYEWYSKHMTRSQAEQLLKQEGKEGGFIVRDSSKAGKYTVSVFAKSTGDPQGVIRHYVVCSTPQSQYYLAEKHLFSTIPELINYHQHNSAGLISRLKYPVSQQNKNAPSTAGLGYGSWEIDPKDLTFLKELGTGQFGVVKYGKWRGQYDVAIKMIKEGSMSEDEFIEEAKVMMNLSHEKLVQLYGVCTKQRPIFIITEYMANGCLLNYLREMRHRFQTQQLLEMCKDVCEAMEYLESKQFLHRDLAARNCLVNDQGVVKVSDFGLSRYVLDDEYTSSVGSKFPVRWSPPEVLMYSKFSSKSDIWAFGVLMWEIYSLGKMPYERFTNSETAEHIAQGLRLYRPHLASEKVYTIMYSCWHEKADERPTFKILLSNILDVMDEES
Method: as §1, §2, §3, §4, §5

AKT2 = molecular target: T4, AKT2 (Homo sapiens, UniProt P31751); assay: Expression proteomics in THP-1 cells, AKT2 level; details: AKT2 protein log2 fold change, 24 h, 1.0 μM
T4 construct: endogenous in cells; host or cells: THP-1
T4 sequence (P31751 whole entry): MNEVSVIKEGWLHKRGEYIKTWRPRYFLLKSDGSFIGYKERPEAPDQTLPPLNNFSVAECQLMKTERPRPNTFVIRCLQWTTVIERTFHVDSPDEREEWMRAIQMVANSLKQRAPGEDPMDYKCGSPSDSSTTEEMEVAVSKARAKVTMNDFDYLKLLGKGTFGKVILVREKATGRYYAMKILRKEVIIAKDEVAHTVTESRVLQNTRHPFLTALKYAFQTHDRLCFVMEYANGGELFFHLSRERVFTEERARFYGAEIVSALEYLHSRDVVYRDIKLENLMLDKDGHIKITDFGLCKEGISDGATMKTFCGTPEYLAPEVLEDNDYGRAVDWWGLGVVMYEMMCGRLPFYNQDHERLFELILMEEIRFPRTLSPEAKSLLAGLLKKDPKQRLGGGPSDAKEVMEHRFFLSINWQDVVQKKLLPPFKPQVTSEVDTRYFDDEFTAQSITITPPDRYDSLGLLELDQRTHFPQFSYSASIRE
Method: as §1, §2, §3, §4, §5

- log2fc_IAP_24 h_1.0 μM_n1 (IRAK3; replicate n1): −2.28
- log2fc_IAP_24 h_1.0 μM_n2 (IRAK3; replicate n2): −2.47
- log2fc_IAP_24 h_1.0 μM_n1 (AURKA; replicate n1): −1.81
- log2fc_IAP_24 h_1.0 μM_n2 (AURKA; replicate n2): −1.42
- log2fc_IAP_24 h_1.0 μM_n1 (BTK; replicate n1): −1.53
- log2fc_IAP_24 h_1.0 μM_n2 (BTK; replicate n2): −1.66
- log2fc_IAP_24 h_1.0 μM_n1 (AKT2; replicate n1): −1.01
- log2fc_IAP_24 h_1.0 μM_n2 (AKT2; replicate n2): −0.89.
SMILES: CNC(=O)c1ccccc1Nc1nc(Nc2ccc(N3CCN(CCOCCOCCOCCOc4ccc5c(c4)CN(C(=O)[C@@H](NC(=O)[C@H](C)NC)C(C)(C)C)[C@H](C(=O)N[C@@H]4CCCc6ccccc64)C5)CC3)cc2)ncc1Cl [IAP, (S)-7-(2-(2-(2-(2-(4-(4-((5-Chloro-4-((2-(methylcarbamoyl)phenyl)amino)pyrimidin-2-yl)amino)phenyl)piperazin-1-yl)ethoxy)ethoxy)ethoxy)ethoxy)-2-((S)-3,3-dimethyl-2-((S)-2-(methylamino)propanamido)butanoyl)-N-((R)-1,2,3,4-tetrahydronaphthalen-1-yl)-1,2,3,4-tetrahydroisoquinoline-3-carboxamide]

— patent US20190152946A1, “Novel Compounds” (GlaxoSmithKline Intellectual Property Development Limited, priority 2016, published 2019)
